From the supplement of paper PMC10307832

Assays:
Test in all cases: relative viability (nuclei count vs DMSO), 5 days (fraction); higher = more cells survive
QS11 + Trametinib = compound: C1CC2=C(C1)C=C(C=C2)OC3=NC(=C4C(=N3)N(C=N4)CC5=CC=C(C=C5)C6=CC=CC=C6)N[C@@H](CC7=CC=CC=C7)CO [QS11] + CC(=O)Nc1cccc(-n2c(=O)n(C3CC3)c(=O)c3c(Nc4ccc(I)cc4F)n(C)c(=O)c(C)c32)c1 [Trametinib] (partner 0.02 µM)
Summary of the method: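 After 5 days of treatment, lung cancer cells in 1536-well plates were fixed and stained in a single step (final 0.05% Triton X-100, 1% formaldehyde, 1 ug/ml Hoechst) and their nuclei counted on 4× images. Treatment had been applied by pin tool the day after seeding as one drug alone or as a fixed anchor-drug dose with five library-drug doses (not always all listed) in √10 steps. Relative viability is the nuclei count of treated wells divided by that of vehicle wells, and values are medians of duplicate plates.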

Darinaparsin = compound: C[As](C)SC[C@H](NC(=O)CC[C@H](N)C(=O)O)C(=O)NCC(=O)O [Darinaparsin]
Summary of the method: (§1)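 Only plates meeting two conditions passed: control CV below 25% and at least one doubling. Lung cancer cell lines, kept overnight at 37 °C in 1536-well plates, were pinned with five library-drug doses (not always all listed) √10 apart on vehicle-anchored plates and grown 5 days without medium change. A one-step fix, permeabilisation and Hoechst stain preceded 4× imaging and MetaXpress nuclear counting. Viability equals treated-well nuclei divided by vehicle-well nuclei, as the median over plates.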

AZ628 = compound: CC1=C(C=C(C=C1)NC(=O)C2=CC(=CC=C2)C(C)(C)C#N)NC3=CC4=C(C=C3)N=CN(C4=O)C [AZ628]
Summary of the method: as §1

QS11 = compound: C1CC2=C(C1)C=C(C=C2)OC3=NC(=C4C(=N3)N(C=N4)CC5=CC=C(C=C5)C6=CC=CC=C6)N[C@@H](CC7=CC=CC=C7)CO [QS11]
Summary of the method: as §1

| Cell Line | relative viability (QS11 + Trametinib; first compound 0.08 µM) | relative viability (QS11 + Trametinib; first compound 0.253 µM) | relative viability (QS11 + Trametinib; first compound 2.53 µM) | relative viability (QS11 + Trametinib; first compound 8 µM) | relative viability (Darinaparsin; 0.08 µM) | relative viability (Darinaparsin; 0.8 µM) | relative viability (Darinaparsin; 2.53 µM) | relative viability (Darinaparsin; 8 µM) | relative viability (AZ628; 0.08 µM) | relative viability (AZ628; 0.253 µM) | relative viability (AZ628; 0.8 µM) | relative viability (AZ628; 2.53 µM) | relative viability (AZ628; 8 µM) | relative viability (QS11; 0.08 µM) | relative viability (QS11; 0.253 µM) | relative viability (QS11; 2.53 µM) | relative viability (QS11; 8 µM) | relative viability (QS11 + Trametinib; first compound 0.8 µM) | relative viability (QS11; 0.8 µM) |
| --- | --- | --- | --- | --- | --- | --- | --- | --- | --- | --- | --- | --- | --- | --- | --- | --- | --- | --- | --- |
| NCI-H1944 | 0.423 | 0.4 | 0.349 | 0.353 | 1 | 0.997 | 0.959 | 1.14 | 1.06 | 0.917 | 0.792 | 0.729 | 0.727 | 0.999 | 0.947 | 0.958 | 0.884 | – | – |
| SK-LU-1 | 0.443 | 0.508 | 0.522 | 0.55 | 1.27 | 0.876 | 0.821 | 1.22 | 0.653 | 0.901 | 0.931 | 0.892 | 0.769 | 0.968 | 1.07 | 0.993 | 0.97 | 0.441 | 0.984 |
| NCI-H1755 | 0.747 | 0.755 | 0.681 | 0.618 | 1.12 | 0.964 | 0.945 | 1.13 | 0.992 | 1.02 | 0.97 | 0.989 | 0.948 | 1.03 | 0.983 | 0.861 | 0.783 | 0.54 | 0.638 |
| NCI-H650 | 0.825 | 0.934 | 0.959 | 0.983 | 0.988 | 1.01 | 0.967 | 0.947 | 1.13 | 1.05 | 1.3 | 1.1 | 1.26 | 0.841 | 0.908 | 0.932 | 0.89 | 1.06 | 1.01 |
| SW 1573 | 0.542 | 0.553 | 0.41 | 0.365 | 1.21 | 0.971 | 0.966 | 1.19 | 0.984 | 0.863 | 0.696 | 0.812 | 0.564 | 1.04 | 0.961 | 0.896 | 0.655 | 0.519 | 1.01 |
| NCI-H322M | 0.547 | 0.543 | 0.582 | 0.513 | 1.02 | 0.951 | 0.767 | 1.03 | 1.1 | 0.952 | 0.986 | 0.95 | 0.788 | 0.923 | 0.904 | 1.15 | 1.41 | 0.565 | 0.998 |
| ABC-1 | – | – | – | – | 0.952 | 0.956 | 0.928 | 0.968 | 1.12 | 0.727 | 0.873 | 0.793 | 0.767 | 1 | 0.957 | 1.17 | 1.15 | – | 0.895 |
| NCI-H1993 | 0.57 | 0.532 | 0.508 | 0.522 | 1.02 | 0.885 | 1.03 | 0.922 | 0.995 | 0.848 | 0.835 | 0.735 | 0.515 | 1.02 | 0.884 | 0.992 | 0.824 | 0.442 | 0.918 |
| NCI-H1355 | 0.447 | 0.342 | 0.378 | 0.433 | 1.06 | 0.939 | 0.865 | 1.1 | 1.02 | 0.975 | 0.956 | 0.938 | 0.781 | 0.933 | 0.918 | 0.981 | 0.986 | 0.378 | 0.769 |
| PC-3 [JPC-3] | – | 0.712 | 0.641 | 0.568 | 1.14 | 1.06 | 1.05 | 1.08 | 1.05 | 1.06 | 1.16 | 1.11 | 0.951 | 0.965 | 1.04 | 1.04 | 1.02 | 0.674 | 0.956 |
| NCI-H1651 | 0.855 | 0.887 | 0.856 | 0.922 | 1.15 | 1 | 0.942 | 1.18 | 0.986 | 1.01 | 0.986 | 1.08 | 1.12 | 0.906 | 1.01 | 0.988 | 0.899 | 0.761 | 0.857 |
| LK-2 | 0.702 | 1.03 | 0.81 | 0.841 | 1.16 | 0.83 | 0.982 | 1.26 | 1.29 | 0.983 | 0.977 | 0.857 | 0.467 | 0.99 | 1.21 | 0.956 | 1.3 | 0.778 | 1.09 |
| NCI-H2023 | 0.616 | 0.57 | 0.68 | 0.597 | 1.08 | 0.952 | 0.992 | 1.23 | 1.11 | 1.03 | 0.974 | 0.915 | 0.674 | 1.04 | 0.987 | 1.09 | 0.805 | 0.661 | 0.895 |
| NCI-H1703 | – | – | – | – | 1.43 | 1.09 | 0.889 | 1.07 | 0.597 | 0.395 | 0.32 | 0.303 | 0.245 | 0.94 | 0.908 | 1.04 | 0.923 | – | 0.901 |
| NCI-H1563 | – | – | – | – | 1.05 | 0.948 | 0.996 | 1.04 | 0.997 | 0.925 | 0.991 | 0.952 | 1.05 | 0.951 | 1.02 | 1.12 | 0.971 | – | 0.965 |
| NCI-H1299 | – | – | – | – | 1.07 | 1.01 | 0.978 | 1.12 | 1.1 | 1.09 | 1.04 | 1.2 | 0.84 | 1.07 | 1.04 | 0.94 | 0.797 | – | 0.91 |
| A549 | – | – | – | – | 1 | 0.987 | 0.991 | 1.21 | 1.02 | 0.865 | 0.787 | 0.897 | 0.452 | 0.974 | 0.971 | 0.912 | 0.927 | – | 0.829 |
| EBC-1 | – | – | – | – | 1.2 | 0.971 | 0.935 | 1.05 | 0.955 | 0.958 | 0.983 | 0.911 | 0.625 | 1.06 | 1.05 | 0.97 | 0.92 | – | 0.934 |
| IA-LM | – | – | – | – | 1.16 | 1.05 | 1.16 | 1.12 | 1.15 | 0.871 | 0.589 | 0.607 | 0.266 | 1 | 1.1 | 0.902 | 0.996 | – | 0.576 |
